This experiment has as its system fetal cells. Description: Fetal cell number in blood drawn into sodium heparin or EDTA tubes, digital PCR. Type of experiment: cell-based. The conditions noted are these: composition containing heparin compared to composition containing EDTA; processed within 2 hrs after blood draw; FIG. 1. The protocol: The number of fetal cells in solutions containing EDTA or heparin were compared (FIG. 1). Pre-procedural blood samples (10 ml per condition) were drawn into either sodium heparin tubes or EDTA tubes. Samples were processed within 2 hrs after blood draw. Briefly, whole blood samples were centrifuged to separate blood cells and plasma. Fetal gender was determined by digital PCR using plasma. Blood cell pellets were washed 5 times in PBS to remove cell-free DNA. DNA was then extracted from washed blood cells with a Qiagen column. The fetal cell number in samples with a male fetus was enumerated by digital PCR.

Consider heparin, for which the fetal cell stability entry is “higher stability”.
